Assay results as given in the NIST ThermoML archive (doi:10.1021/je049671t).
Numbers after ± are expanded uncertainties.

Assay: xn = mol fraction of the nth substance listed
Details: Liquid, Vibrating tube method

CC(C)C [2-methylpropane] + CCC
Details	mass density [kg/m3]
260 K, 7006.2 kPa, x2 = 0.25	595.15 ± 0.34
280 K, 467.2 kPa, x2 = 0.499	549.36 ± 0.28
280 K, 478.7 kPa, x2 = 0.75	535.35 ± 0.28
280 K, 500.3 kPa, x2 = 0.25	562.94 ± 0.28
280 K, 952.8 kPa, x2 = 0.499	550.3 ± 0.29
280 K, 990.6 kPa, x2 = 0.75	536.42 ± 0.29
280 K, 1004.7 kPa, x2 = 0.25	563.86 ± 0.28
280 K, 1462.8 kPa, x2 = 0.25	564.67 ± 0.29
280 K, 1514 kPa, x2 = 0.499	551.39 ± 0.29
280 K, 1517.2 kPa, x2 = 0.75	537.51 ± 0.3
280 K, 2007.8 kPa, x2 = 0.25	565.62 ± 0.29
280 K, 2007.8 kPa, x2 = 0.499	552.34 ± 0.3
280 K, 2029.6 kPa, x2 = 0.75	538.54 ± 0.3
280 K, 2489.1 kPa, x2 = 0.499	553.22 ± 0.3
280 K, 2510.3 kPa, x2 = 0.75	539.5 ± 0.31
280 K, 2513.6 kPa, x2 = 0.25	566.51 ± 0.3
280 K, 2999.1 kPa, x2 = 0.25	567.36 ± 0.3
280 K, 3019.4 kPa, x2 = 0.75	540.5 ± 0.31
280 K, 3022.9 kPa, x2 = 0.499	554.21 ± 0.31
280 K, 3488.8 kPa, x2 = 0.25	568.19 ± 0.31
280 K, 3519.6 kPa, x2 = 0.499	555.1 ± 0.31
280 K, 3522.3 kPa, x2 = 0.75	541.47 ± 0.32
280 K, 3992 kPa, x2 = 0.499	555.95 ± 0.32
280 K, 3992.4 kPa, x2 = 0.25	569.03 ± 0.31
280 K, 4026.3 kPa, x2 = 0.75	542.43 ± 0.32
280 K, 4516.8 kPa, x2 = 0.25	569.91 ± 0.32
280 K, 4518.6 kPa, x2 = 0.499	556.87 ± 0.33
280 K, 4544.4 kPa, x2 = 0.75	543.38 ± 0.33
280 K, 4965.2 kPa, x2 = 0.75	544.17 ± 0.34
280 K, 4979.1 kPa, x2 = 0.25	570.66 ± 0.33
280 K, 5014 kPa, x2 = 0.499	557.72 ± 0.33
280 K, 5482.8 kPa, x2 = 0.499	558.54 ± 0.34
280 K, 5485 kPa, x2 = 0.25	571.47 ± 0.33
280 K, 5530.9 kPa, x2 = 0.75	545.19 ± 0.34
280 K, 5989.4 kPa, x2 = 0.25	572.28 ± 0.34
280 K, 6012.9 kPa, x2 = 0.75	546.05 ± 0.35
280 K, 6027 kPa, x2 = 0.499	559.46 ± 0.34
280 K, 6488.2 kPa, x2 = 0.75	546.89 ± 0.35
280 K, 6525.9 kPa, x2 = 0.499	560.31 ± 0.35
280 K, 6532.5 kPa, x2 = 0.25	573.13 ± 0.34
280 K, 6931.1 kPa, x2 = 0.75	547.66 ± 0.36
280 K, 6938.9 kPa, x2 = 0.499	560.98 ± 0.35
280 K, 6965.6 kPa, x2 = 0.25	573.82 ± 0.35
280 K, 6968.2 kPa, x2 = 0.25	573.78 ± 0.35
300 K, 824.3 kPa, x2 = 0.75	507.35 ± 0.3
300 K, 996.8 kPa, x2 = 0.499	523.82 ± 0.29
300 K, 1001.6 kPa, x2 = 0.25	538.53 ± 0.29
300 K, 1503.7 kPa, x2 = 0.25	539.71 ± 0.29
300 K, 1519.6 kPa, x2 = 0.499	525.17 ± 0.3
300 K, 1534 kPa, x2 = 0.75	509.38 ± 0.3
300 K, 2006.6 kPa, x2 = 0.25	540.87 ± 0.3
300 K, 2026.1 kPa, x2 = 0.499	526.45 ± 0.31
300 K, 2028.3 kPa, x2 = 0.75	510.77 ± 0.31
300 K, 2493.2 kPa, x2 = 0.75	512.04 ± 0.32
300 K, 2510.6 kPa, x2 = 0.25	542.01 ± 0.31
300 K, 2530.4 kPa, x2 = 0.499	527.7 ± 0.31
300 K, 3014.6 kPa, x2 = 0.25	543.13 ± 0.31
300 K, 3028.7 kPa, x2 = 0.75	513.47 ± 0.32
300 K, 3043.4 kPa, x2 = 0.499	528.93 ± 0.32
300 K, 3486.8 kPa, x2 = 0.499	529.95 ± 0.32
300 K, 3488.8 kPa, x2 = 0.25	544.16 ± 0.32
300 K, 3519.2 kPa, x2 = 0.75	514.75 ± 0.33
300 K, 3995.5 kPa, x2 = 0.499	531.16 ± 0.33
300 K, 3996.7 kPa, x2 = 0.75	515.97 ± 0.33
300 K, 4012 kPa, x2 = 0.25	545.28 ± 0.32
300 K, 4467.1 kPa, x2 = 0.75	517.17 ± 0.34
300 K, 4483.4 kPa, x2 = 0.25	546.25 ± 0.33
300 K, 4503.6 kPa, x2 = 0.499	532.34 ± 0.34

mass density [kg/m3]
Details	x2 = 0.25	x2 = 0.499	x2 = 0.75
260 K	585.98 ± 0.27	–	560.96 ± 0.27
280 K	562.49 ± 0.27	549.15 ± 0.28	535.32 ± 0.28
